Measured values reported in US20250115571A1, “OXOPIPERAZINE DERIVATIVES” (Inthera Bioscience AG, priority 2017, published 2025).

Columns and labels:
[1] = tested on: Vascular Endothelial Growth Factor A (VEGF); assay: Tumor VEGF protein (ELISA) in MKN45 gastric cancer cell-derived xenograft; format: in vivo, mouse; conditions: approximately 3 weeks of treatment with 3 mg/kg or 6 mg/kg, effect less evident than in HCT-116
Description: Mice from groups 1, 2, 4 and 5 of the HCT-116 colorectal cancer model (TABLE 12, EXAMPLE 324) and MKN45 gastric cancer model (TABLE 14, EXAMPLE 325) were used to analyze tumor Vascular Endothelial Growth Factor A (VEGF) protein expression at the end of the experiment. Tumors homogenates were prepared using a 2× Lysis Buffer (RayBiotech Life, Norcross, GA, USA) according to manufacturer's instructions. VEGF was quantified in 50 micrograms tumor by ELISA (Human VEGF Quantikine ELISA Kit, R&D Systems) according to manufacturer's instructions.

CT-26 cells = assay: Cell-derived syngeneic mouse model for colorectal carcinoma combined with anti-PD1 antibodies; format: in vivo; conditions: ten mice per group
Description: The cells were inoculated subcutaneously into the left flank of 60 mice. […] Body weights were measured daily until treatment start, then twice weekly. Tumor burden was assessed twice weekly by caliper measurement. The study was terminated four weeks post first dosing.

[2] = tested on: p53 protein and p53 lysine 382 acetylation in CaSki cells; assay: P53 protein reactivation in HPV16-positive cervical cancer cells (Western blot); format: cell-based, human; conditions: 72 h
Description: HPV16-positive cervical cancer cells CaSki were subcultured as described in EXAMPLE 1, seeded at a density of 20′000 cells/cm^2; and readily treated with Compound 258 for 72 hrs. For western blot analysis, cells were removed from the cell culture vessels by trypsinization, washed twice with PBS (Sigma-Aldrich), lysed with a RIPA-buffer/Protease inhibitor cocktail (Sigma-Aldrich) by shaking on ice for 30 minutes followed by sonication on ice, 20 minutes centrifugation at 16′000×g, 4° C. Lysates were mixed 1:1 with 4× Lammli Buffer (Bio-Rad) prior to loading onto a Mini-PROTEAN TGX precast 4-20% PAGE gel (Bio-Rad). Gels were run for 1 hour at 110V. Gel were transferred to a Trans-Blot Turbo Mini PVDF membrane (Bio-Rad) using a Bio-Rad Trans-Blot Turbo System according to manufacturer's instructions. Equal amounts of cells were used, and the total transferred protein visualized on a Bio-Rad ChemiDoc Touch Imager prior to incubation with the primary antibody. […] Specific antibody binding was detected with the SuperSignal West Femto Maximum Sensitivity Substrate (ThermoFisher) and visualized using a Bio-Rad ChemiDoc Touch Imager.

In the case of `CC(C)C[C@@H]1NCCN([C@@H](CC(C)C)C(=O)N2CCC3(C[C@@H]2C)OCC(CN2CCCC2)CO3)C1=O` (stereo partly drawn) [Compound 258, (3S)-1-[(2S)-4-methyl-1-oxo-1-[(3s,6s,8S)-8-methyl-3-(pyrrolidin-1-ylmethyl)-1,5-dioxa-9-azaspiro[5.5]undec-an-9-yl]pentan-2-yl]-3-(2-methylpropyl)piper-azin-2-one (^≠), isomer Z], the “tumor VEGF protein levels” value [1] is reported as “significantly reduced”, the mice alive (CT-26 cells; day 21, 1 mg/kg p.o. QD + Anti-PD1 10 mg/kg i.p. BIW) is reported as 10 and the mice alive (CT-26 cells; day 21, 1 mg/kg p.o. QD alone) is reported as 10. It also gave a mice alive (CT-26 cells; day 21, 3 mg/kg p.o. QD + Anti-PD1 10 mg/kg i.p. BIW) of 10, a mice alive (CT-26 cells; day 21, 3 mg/kg p.o. QD alone) of 10 and a mice alive (CT-26 cells; day 23, 1 mg/kg p.o. QD + Anti-PD1 10 mg/kg i.p. BIW) of 10. It also gave a mice alive (CT-26 cells; day 23, 1 mg/kg p.o. QD alone) of 10, a mice alive (CT-26 cells; day 23, 3 mg/kg p.o. QD + Anti-PD1 10 mg/kg i.p. BIW) of 10 and a mice alive (CT-26 cells; day 23, 3 mg/kg p.o. QD alone) of 8. For the same compound, the mice alive (CT-26 cells; day 25, 1 mg/kg p.o. QD + Anti-PD1 10 mg/kg i.p. BIW) was 10, the mice alive (CT-26 cells; day 25, 1 mg/kg p.o. QD alone) was 5 and the mice alive (CT-26 cells; day 25, 3 mg/kg p.o. QD + Anti-PD1 10 mg/kg i.p. BIW) was 10. For the same compound, the mice alive (CT-26 cells; day 25, 3 mg/kg p.o. QD alone) was 6, the mice alive (CT-26 cells; day 28, 1 mg/kg p.o. QD + Anti-PD1 10 mg/kg i.p. BIW) was 7 and the mice alive (CT-26 cells; day 28, 1 mg/kg p.o. QD alone) was 2. It also gave a mice alive (CT-26 cells; day 28, 3 mg/kg p.o. QD + Anti-PD1 10 mg/kg i.p. BIW) of 9, a mice alive (CT-26 cells; day 28, 3 mg/kg p.o. QD alone) of 2 and a mice alive (CT-26 cells; day 30, 1 mg/kg p.o. QD + Anti-PD1 10 mg/kg i.p. BIW) of 6. The mice alive (CT-26 cells; day 30, 1 mg/kg p.o. QD alone) was 1, the mice alive (CT-26 cells; day 30, 3 mg/kg p.o. QD + Anti-PD1 10 mg/kg i.p. BIW) was 8 and the mice alive (CT-26 cells; day 30, 3 mg/kg p.o. QD alone) was 0. It also gave a mice alive (CT-26 cells; day 32, 1 mg/kg p.o. QD + Anti-PD1 10 mg/kg i.p. BIW) of 4, a mice alive (CT-26 cells; day 32, 1 mg/kg p.o. QD alone) of 0 and a mice alive (CT-26 cells; day 32, 3 mg/kg p.o. QD + Anti-PD1 10 mg/kg i.p. BIW) of 4. The mice alive (CT-26 cells; day 32, 3 mg/kg p.o. QD alone) was 0, the mice alive (CT-26 cells; day 34, 1 mg/kg p.o. QD + Anti-PD1 10 mg/kg i.p. BIW) was 4 and the mice alive (CT-26 cells; day 34, 1 mg/kg p.o. QD alone) was 0. For the same compound, the mice alive (CT-26 cells; day 34, 3 mg/kg p.o. QD + Anti-PD1 10 mg/kg i.p. BIW) was 4, the mice alive (CT-26 cells; day 34, 3 mg/kg p.o. QD alone) was 0 and the mice alive (CT-26 cells; day 36, 1 mg/kg p.o. QD + Anti-PD1 10 mg/kg i.p. BIW) was 4(*). The mice alive (CT-26 cells; day 36, 1 mg/kg p.o. QD alone) was 0, the mice alive (CT-26 cells; day 36, 3 mg/kg p.o. QD + Anti-PD1 10 mg/kg i.p. BIW) was 4(*) and the mice alive (CT-26 cells; day 36, 3 mg/kg p.o. QD alone) was 0. For the same compound, the “concentration at which acetylation of p53 lysine 382 is detectable” value [2] was 20 nM and the “concentration at which induction of p53 protein above baseline is evident” value [2] was 7 nM.
